Patent publication US20230416294A1, “DECITABINE ANALOGS FOR IMMUNOLOGICAL AND ONCOLOGICAL THERAPY” (The Johns Hopkins University, priority 2020, published 2023)
Read-outs that look alike come from different tables or passages of the source.

Experiments:
[1] = tested on: Regulatory T cell (Tregs); experiment: Treg functional assay for efficacy; assay type: cell-based, Murine; conditions: dose response
Experimental: A functional assay was developed to identify a compound that can augment Regulatory T cell (Tregs) suppressive function. Tregs are the major regulators of the immune systems and are paramount in transplant tolerance and in autoimmune and inflammatory diseases. Current hypomethylating drugs such as decitabine (DAC) can augment Treg function, but carry significant side effects and cytotoxicity. Murine Tregs were isolated from spleens using magnetic beads (Miltenyi). […] Tregs were cultured for 48 hrs in the presence of anti-CD3, anti CD28 and IL-2+/−equimolar concentrations decitabine and analogs. After 48 hrs, Tregs were analyzed for suppressive phenotype using Foxp3 expression (master transcription factor) and relative proliferation (Ki-67 expression).

cytidine deaminase (CDA) = cytidine deaminase (CDA) (Homo sapiens, UniProt P32320); experiment: stability to cytidine deaminase (CDA); assay type: in vitro ADME
DU145 cancer cells = experiment: DAC incorporation into genomic DNA and DNA demethylation in DU145 cells; assay type: cell-based; conditions: DU145 cancer cells treated with a dose response of MK-923
Experimental: DU145 cancer cells were treated with a dose response of MK-923, and the degree of 5-aza-2′deoxycytidine (DAC) (Blue line, left axis), and DNA demethylation (orange line, right axis), was measured.

Mouse CD4+ T cells = experiment: regulatory T cell phenotype and function in cultured CD4+ T cells; assay type: cell-based; conditions: Mouse CD4+ T cells cultured for 3 days +/−DAC or MK-923
Experimental: Mouse CD4+ T cells were cultured for 3 days +/−DAC or MK-923;

[2] = tested on: acute lung injury induced by lipopolysaccharide (LPS); conditions: in vivo
[3] = tested on: bacterial-induced lung injury; experiment: bacterial-induced lung injury model, nebulized compound; assay type: in vivo; conditions: (1 mg/kg DAC)
[4] = toxicity of nebulized compound versus DAC; assay type: in vivo
[5] = lung delivery versus plasma after nebulization in LPS lung injury model; assay type: in vivo; conditions: inhaled, nebulized, read-out: enhanced lung delivery versus plasma
lung allograft rejection = experiment: lung allograft rejection; conditions: in vivo
influenza = influenza model; conditions: in vivo
[6] = tested on: eosinophilic inflammation; experiment: asthma model; conditions: in vivo

cytidine deaminase (CDA), sequence (P32320 whole entry, species assumed): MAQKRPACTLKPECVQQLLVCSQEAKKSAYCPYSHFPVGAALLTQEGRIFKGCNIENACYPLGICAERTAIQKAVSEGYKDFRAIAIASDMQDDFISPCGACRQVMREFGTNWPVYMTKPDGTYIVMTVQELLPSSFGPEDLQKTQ

## O=c1nc(/N=C/N2CCCC2)ncn1[C@H]1C[C@H](O)[C@@H](CO)O1 [MK-911]
[1]
  increase in Tregs: dose-dependent increase
Cytidine deaminase (CDA)
  stability to cytidine deaminase (CDA): stable

## CN1CCC/C1=N/c1ncn([C@H]2C[C@H](O)[C@@H](CO)O2)c(=O)n1 [MK-923]
DU145 cancer cells
  5-aza-2′deoxycytidine (DAC) incorporation into genomic DNA: dose responsive increase
  DNA Cytosine methylation: decrease
Mouse CD4+ T cells
  enhancing regulatory T cell (Tregs) phenotype and function: equipotent
[2]
  therapeutic index versus DAC: enhanced therapeutic index versus DAC
  toxicity in LPS lung injury model: without overt toxicity
[3]
  efficacy in bacterial-induced lung injury: rescues bacterial-induced lung injury
  hematological toxicity: reduced hematological toxicity
[4]
  toxicity versus DAC: improved toxicity versus DAC
[5]
  Kp: 6

## CN(C)/C=N\c1ncn([C@H]2C[C@H](O)[C@@H](CO)O2)c(=O)n1 [MK-890, N^4-Dimethylaminomethylene derivative]
Cytidine deaminase (CDA); +/−tetrahydrouridine
  stability to cytidine deaminase (CDA): stable

## Nc1ncn([C@H]2C[C@H](O)[C@@H](CO)O2)c(=O)n1 [decitabine, 5-aza-2′-deoxycytidine]
Mouse CD4+ T cells
  enhancing regulatory T cell (Tregs) phenotype and function: equipotent
Lung allograft rejection
  lung allograft rejection: improves lung allograft rejection
influenza
  ongoing inflammation in an influenza model: rescues ongoing inflammation
[6]
  eosinophilic inflammation in an asthma model: potently abrogates eosinophilic inflammation
[1]
  increase in Tregs: dose-dependent increase
